Results published in PubChem BioAssay (NCI).
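Growth conditions: 96-well plates. Treatment: test compound, 48 hours, 5 concentrations. Analysis: linear interpolation between bracketing concentrations; unreached endpoints set to highest concentration. The concentration for 50% growth inhibition is given as GI50. TGI: concentration producing complete growth inhibition.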

How the values were obtained:
Assay in all cases: growth of human tumour cells (NCI), 48 h
[1] = test system: RXF 393 renal
[2] = test system: SK-MEL-2 melanoma
[3] = test system: RPMI-8226 leukemia
[4] = test system: HCT-116 colon
[5] = test system: UO-31 renal
[6] = test system: U251 CNS
[7] = test system: ACHN renal
[8] = test system: BT-549 breast
[9] = test system: SR leukemia
[10] = test system: A498 renal
[11] = test system: MDA-MB-435
[12] = test system: SW-620 colon
[13] = test system: HCC-2998 colon
[14] = test system: HL-60(TB) leukemia
[15] = test system: K-562 leukemia
[16] = test system: A549 NSCLC
[17] = test system: NCI-H226 lung
[18] = test system: SK-MEL-28 melanoma
[19] = test system: T-47D breast
[20] = test system: SK-OV-3 ovarian
[21] = test system: HCT-15 colon
[22] = test system: HOP-92 NSCLC
[23] = test system: NCI-H522 lung
[24] = test system: MALME-3M melanoma
[25] = test system: SF-268 CNS
[26] = test system: SF-295 CNS
[27] = test system: MOLT-4 leukemia
[28] = test system: NCI-H460 lung
[29] = test system: EKVX NSCLC
[30] = test system: OVCAR-8 ovarian
[31] = test system: SNB-75 CNS
[32] = test system: SK-MEL-5 melanoma
[33] = test system: UACC-257 melanoma
[34] = test system: TK-10 renal
[35] = test system: HS 578T breast
[36] = test system: OVCAR-5 ovarian
[37] = test system: IGROV1 ovarian
[38] = test system: NCI/ADR-RES ovarian
[39] = test system: SNB-19 CNS
[40] = test system: KM12 colon
[41] = test system: MDA-MB-231 breast
[42] = test system: CCRF-CEM leukemia
[43] = test system: M14 melanoma
[44] = test system: CAKI-1 renal
[45] = test system: DU-145 prostate
[46] = test system: COLO 205 colon
[47] = test system: LOX IMVI melanoma
[48] = test system: OVCAR-3 ovarian
[49] = test system: NCI-H23 lung
[50] = test system: 786-0 renal
[51] = test system: SF-539 CNS
[52] = test system: HT29 colon
[53] = test system: PC-3 prostate
[54] = test system: UACC-62 melanoma
[55] = test system: MCF7 breast
[56] = test system: SN12C renal
[57] = test system: HOP-62 NSCLC
[58] = test system: OVCAR-4 ovarian

## Cc1cc2c(C(=O)NC[C@H](C)c3ccccc3)c(O)c(O)cc2c(O)c1-c1c(C)cc2c(C(=O)NC[C@H](C)c3ccccc3)c(O)c(O)cc2c1O
[1]
  GI50: 197 nM
  TGI: 895 nM
[2]
  GI50: 596 nM
  TGI: 4230 nM
[3]
  GI50: 185 nM
  TGI: 5410 nM
[4]
  GI50: 34.6 nM
  TGI: 9590 nM
[5]
  GI50: 285 nM
  TGI: 1240 nM
[6]
  GI50: 74 nM
  TGI: 1670 nM
[7]
  GI50: 296 nM
  TGI: 3830 nM
[8]
  GI50: 43.7 nM
  TGI: 2030 nM
[9]
  GI50: 376 nM
  TGI: 4510 nM
[10]
  GI50: 316 nM
  TGI: 7540 nM
[11]
  GI50: 232 nM
  TGI: 4790 nM
[12]
  GI50: 482 nM
  TGI: 5700 nM
[13]
  GI50: 932 nM
  TGI: 3080 nM
[14]
  GI50: 901 nM
  TGI: 8570 nM
[15]
  GI50: 170 nM
  TGI: 7690 nM
[16]
  GI50: 69.3 nM
  TGI: 3230 nM
[17]
  GI50: 244 nM
  TGI: 987 nM
[18]
  GI50: 437 nM
  TGI: 4410 nM
[19]
  GI50: 284 nM
  TGI: 1340 nM
[20]
  GI50: 431 nM
  TGI: 2800 nM
[21]
  GI50: 208 nM
  TGI: 12600 nM
[22]
  GI50: 276 nM
  TGI: 1000 nM
[23]
  GI50: 288 nM
  TGI: 1180 nM
[24]
  GI50: 1780 nM
  TGI: 7230 nM
[25]
  GI50: 234 nM
  TGI: 3700 nM
[26]
  GI50: 131 nM
  TGI: 702 nM
[27]
  GI50: 199 nM
  TGI: 7800 nM
[28]
  GI50: 33.4 nM
  TGI: 388 nM
[29]
  GI50: 411 nM
  TGI: 8100 nM
[30]
  GI50: 588 nM
  TGI: 10100 nM
[31]
  GI50: 251 nM
  TGI: 1980 nM
[32]
  GI50: 447 nM
  TGI: 1470 nM
[33]
  GI50: 1370 nM
  TGI: 7230 nM
[34]
  GI50: 298 nM
  TGI: 10600 nM
[35]
  GI50: 274 nM
  TGI: 2560 nM
[36]
  GI50: 503 nM
  TGI: 5030 nM
[37]
  GI50: 90.9 nM
  TGI: 11300 nM
[38]
  GI50: 252 nM
  TGI: 4300 nM
[39]
  GI50: 60.5 nM
  TGI: 4300 nM
[40]
  GI50: 107 nM
  TGI: 2240 nM
[41]
  GI50: 677 nM
  TGI: 6530 nM
[42]
  GI50: 122 nM
  TGI: 11000 nM
[43]
  GI50: 438 nM
  TGI: 5720 nM
[44]
  GI50: 375 nM
  TGI: 10000 nM
[45]
  GI50: 300 nM
  TGI: 14300 nM
[46]
  GI50: 711 nM
  TGI: 5830 nM
[47]
  GI50: 539 nM
  TGI: 4890 nM
[48]
  GI50: 306 nM
  TGI: 1550 nM
[49]
  GI50: 57.1 nM
  TGI: 1650 nM
[50]
  GI50: 368 nM
  TGI: 1800 nM
[51]
  GI50: 242 nM
  TGI: 1020 nM
[52]
  GI50: 355 nM
  TGI: 11000 nM
[53]
  GI50: 342 nM
  TGI: 1460 nM
[54]
  GI50: 146 nM
  TGI: 486 nM
[55]
  GI50: 68.5 nM
  TGI: 4200 nM
[56]
  GI50: 436 nM
  TGI: 10600 nM
[57]
  GI50: 301 nM
  TGI: 2150 nM
[58]
  GI50: 446 nM
  TGI: 8300 nM
